# Test results published in patent US9884832B2 (priority 2011, dated 2018).
# Target: AM2 S31N (serine→asparagine mutation at residue 31 in the M2 protein) (Influenza A virus, UniProt P0DOF5, S31N)
# Assay type: cell-based, influenza virus A/Udorn/72
# Conditions: not given
row,SMILES,S31N OOcyte Inhibition at 100 uM (%)
1,"COc1ccc2nc(CN(Cc3nc4ccc(OC)cc4[nH]3)C34CC5CC(CC(C5)C3)C4)[nH]c2c1 [Example 201a, Adamantan-1-yl-bis-(6-methoxy-1H-benzoimidazol-2-ylmethyl)-amine]",B (key: (A)=31-95%; (B)=0-30%)
2,"C1CCC(c2nc(CNC34CC5CC(CC(C5)C3)C4)no2)C1 [Example 109a, N-((5-cyclopentyl-1,2,4-oxadiazol-3-yl)methyl)adamantan-1-amine]",A (key: (A)=31-95%; (B)=0-30%)
3,"c1cc(C2CC2)ccc1CNC12CC3CC(CC(C3)C1)C2 [Example 9a, N-(4-Cyclopropylbenzyl)adamantan-1-amine]",A (key: (A)=31-95%; (B)=0-30%)
4,CSc1ccc(CNC23CC4CC(CC(C4)C2)C3)s1 [Example 90a],A (key: (A)=31-95%; (B)=0-30%)
5,c1ccc(-c2cc(CNC34CC5CC(CC(C5)C3)C4)on2)cc1 [Example 164a],A (key: (A)=31-95%; (B)=0-30%)
6,"c1cc(C2CC2)sc1CNC12CC3CC(CC(C3)C1)C2 [Example 108a, N-((5-cyclopropylthiophen-2-yl)methyl)adamantan-1-amine]",A (key: (A)=31-95%; (B)=0-30%)
7,"c1ccc(C2=NOC(CNC34CC5CC(CC(C5)C3)C4)C2)cc1 (centres unmarked) [Example 167a, N-((3-phenyl-4,5-dihydroisoxazol-5-yl)methyl)adamantan-1-amine]",A (key: (A)=31-95%; (B)=0-30%)
8,"c1ccc(-c2ncc(CNC34CC5CC(CC(C5)C3)C4)cn2)cc1 [Example 63a, N-((2-phenylpyrimidin-5-yl)methyl)adamantan-1-amine]",A (key: (A)=31-95%; (B)=0-30%)
9,"CC(C)c1csc(CNC23CC4CC(CC(C4)C2)C3)n1 [Example 84a, N-((4-isopropylthiazol-2-yl)methyl)adamantan-1-amine]",B (key: (A)=31-95%; (B)=0-30%)
10,"c1nc(CNC23CC4CC(CC(C4)C2)C3)no1 [Example 73a, Adamantan-1-yl-[1,2,4]oxadiazol-3-ylmethyl-amine]",A (key: (A)=31-95%; (B)=0-30%)
11,"c1ccc(-c2nc(CNC34CC5CC(CC(C5)C3)C4)c[nH]2)cc1 [Example 114a, N-((2-phenyl-1H-imidazol-4-yl)methyl)adamantan-1-amine]",B (key: (A)=31-95%; (B)=0-30%)
12,"CC(C)(C)c1ccc(-c2noc(CNC34CC5CC(CC(C5)C3)C4)n2)cc1 [Example 124a, N-((3-(4-(tert-butyl)phenyl)-1,2,4-oxadiazol-5-yl)methyl)adamantan-1-amine]",B (key: (A)=31-95%; (B)=0-30%)
13,"c1coc(-c2nc(CNC34CC5CC(CC(C5)C3)C4)no2)c1 [Example 160a, N-((5-(furan-2-yl)-1,2,4-oxadiazol-3-yl)methyl)adamantan-1-amine]",A (key: (A)=31-95%; (B)=0-30%)
14,"c1ccc(-c2noc(CNC34CC5CC(CC(C5)C3)C4)n2)cc1 [Example 123a, N-((3-phenyl-1,2,4-oxadiazol-5-yl)methyl)adamantan-1-amine]",A (key: (A)=31-95%; (B)=0-30%)
15,"Clc1cc2cc(CNC34CC5CC(CC(C5)C3)C4)sc2s1 [Example 173a, Adamantan-1-yl-(5-chloro-thieno[2,3-b]thiophen-2-ylmethyl)-amine]",A (key: (A)=31-95%; (B)=0-30%)
16,"c1ccc(-c2nc(CNC34CC5CC(CC(C5)C3)C4)no2)cc1 [Example 131a, N-((5-phenyl-1,2,4-oxadiazol-3-yl)methyl)adamantan-1-amine]",A (key: (A)=31-95%; (B)=0-30%)
17,"Nc1ncc(CNC23CC4CC(CC(C4)C2)C3)s1 [Example 93a, 5-((adamantan-1-ylamino)methyl)thiazol-2-amine]",B (key: (A)=31-95%; (B)=0-30%)
18,"c1csc(-c2ccc(CNC34CC5CC(CC(C5)C3)C4)o2)c1 [Example 138a, Adamantan-1-yl-(5-thiophen-2-yl-furan-2-ylmethyl)-amine]",A (key: (A)=31-95%; (B)=0-30%)
19,Cc1ccc(CNC23CC4CC(CC(C4)C2)C3)c(O)c1 [Example 51a],A (key: (A)=31-95%; (B)=0-30%)
20,"c1csc(-c2nnc(CNC34CC5CC(CC(C5)C3)C4)o2)c1 [Example 147a, Adamantan-1-yl-(5-thiophen-2-yl-[1,3,4]oxadiazol-2-ylmethyl)-amine]",A (key: (A)=31-95%; (B)=0-30%)
21,"CC(C)n1cc(CNC23CC4CC(CC(C4)C2)C3)cn1 [Example 85a, N-((1-isopropyl-1H-pyrazol-4-yl)methyl)adamantan-1-amine]",B (key: (A)=31-95%; (B)=0-30%)

# Same assay, conditions: pH 5.5
row,SMILES,S31N OOcyte Inhibition at 100 uM (%)
1,"CCOC(=O)CN(C)c1ncc(CNC23CC4CC(CC(C4)C2)C3)cn1 [Example 60b, N-((2-methyl(ethylcarboxymethyl)aminopyrimidin-5-yl)methyl)adamantan-1-amine]",A (key: (A)=31-95%; (B)=0-30%)
2,"CCCc1nc(CNC23CC4CC(CC(C4)C2)C3)no1 [Example 29b, N-((5-propyl-1,2,4-oxadiazol-3-yl)methyl)adamantan-1-amine]",A (key: (A)=31-95%; (B)=0-30%)
3,"FC(F)(F)Oc1ccc(-c2cc(CNC34CC5CC(CC(C5)C3)C4)no2)cc1 [Example 36b, N-((5-(4-(trifluoromethoxy)phenyl)isoxazol-3-yl)methyl)adamantan-1-amine]",B (key: (A)=31-95%; (B)=0-30%)
4,"COc1ccsc1-c1cc(CNC23CC4CC(CC(C4)C2)C3)no1 [Example 44b, N-((5-(3-methoxythiophen-2-yl)isoxazol-3-yl)methyl)adamantan-1-amine]",A (key: (A)=31-95%; (B)=0-30%)
5,"COc1ccc2nc(CNC34CC5CC(CC(C5)C3)C4)[nH]c2c1 [Example 79b, Adamantan-1-yl-(6-methoxy-1H-benzoimidazol-2-ylmethyl)-amine]",A (key: (A)=31-95%; (B)=0-30%)
6,"CSC(C)(C)Cc1cc(CNC23CC4CC(CC(C4)C2)C3)no1 [Example 46b, N-((5-(2-methyl-2-(methylthio)propyl)isoxazol-3-yl)methyl)adamantan-1-amine]",A (key: (A)=31-95%; (B)=0-30%)
7,"CSc1ccccc1-c1cnc(CNC23CC4CC(CC(C4)C2)C3)s1 [Example 76b, Adamantan-1-yl-[5-(2-methylsulfanyl-phenyl)-thiazol-2-ylmethyl]-amine]",A (key: (A)=31-95%; (B)=0-30%)
8,"Fc1cc(F)cc(-c2cc(CNC34CC5CC(CC(C5)C3)C4)no2)c1 [Example 33b, N-((5-(3,5-difluorophenyl)isoxazol-3-yl)methyl)adamantan-1-amine]",A (key: (A)=31-95%; (B)=0-30%)
9,"CC(C)c1cc(CNC23CC4CC(CC(C4)C2)C3)no1 [Example 27b, N-((5-isopropylisoxazol-3-yl)methyl)adamantan-1-amine]",A (key: (A)=31-95%; (B)=0-30%)
10,"CSc1ccccc1-c1ccc(CNC23CC4CC(CC(C4)C2)C3)nc1 [Example 67b, Adamantan-1-yl-[5-(2-methylsulfanyl-phenyl)-pyridin-2-ylmethyl]-amine]",A (key: (A)=31-95%; (B)=0-30%)
11,"O=C(CNC12CC3CC(CC(C3)C1)C2)c1cccs1 [Example 87b, 2-(adamantan-1-ylamino)-1-(thiophen-2-yl)ethanone]",B (key: (A)=31-95%; (B)=0-30%)
12,"COCc1nc(CNC23CC4CC(CC(C4)C2)C3)no1 [Example 23b, N-((5-(methoxymethyl)-1,2,4-oxadiazol-3-yl)methyl)adamantan-1-amine]",A (key: (A)=31-95%; (B)=0-30%)
13,"c1nc(N2CCCC2)ncc1CNC12CC3CC(CC(C3)C1)C2 [Example 54b, N-((2-(pyrrolidin-1-yl)pyrimidin-5-yl)methyl)adamantan-1-amine]",A (key: (A)=31-95%; (B)=0-30%)
14,"Cc1csc(-c2ccc(CNC34CC5CC(CC(C5)C3)C4)cc2)c1 [Example 5b, N-(4-(4-Methylthiophen-2-yl)benzyl)adamantan-1-amine]",A (key: (A)=31-95%; (B)=0-30%)
15,"Clc1ccccc1-c1cc(CNC23CC4CC(CC(C4)C2)C3)no1 [Example 45b, N-((5-(2-chlorophenyl)isoxazol-3-yl)methyl)adamantan-1-amine]",A (key: (A)=31-95%; (B)=0-30%)
16,"CC(NC12CC3CC(CC(C3)C1)C2)c1ccc(C(C)(C)C)cc1 (centres unmarked) [Example 3b, N-(1-(4-(tert-butyl)phenyl)ethyl)adamantan-1-amine]",B (key: (A)=31-95%; (B)=0-30%)
17,"Oc1cc(-c2ccco2)ccc1CNC12CC3CC(CC(C3)C1)C2 [Example 7b, 2-((-Adamantan-1-ylamino)methyl)-5-(furan-2-yl)phenol]",A (key: (A)=31-95%; (B)=0-30%)
18,"c1nc(CNC23CC4CC(CC(C4)C2)C3)sc1C1CC1 [Example 65b, Adamantan-1-yl-(5-cyclopropyl-thiazol-2-ylmethyl)-amine]",A (key: (A)=31-95%; (B)=0-30%)
19,"COc1ccccc1-c1nc(CNC23CC4CC(CC(C4)C2)C3)no1 [Example 15b, N-((5-(2-methoxyphenyl)-1,2,4-oxadiazol-3-yl)methyl)adamantan-1-amine]",A (key: (A)=31-95%; (B)=0-30%)
20,"CCCSc1ncc(CNC23CC4CC(CC(C4)C2)C3)cn1 [Example 62b, N-((2-propylthiopyrimidin-5-yl)methyl)adamantan-1-amine]",A (key: (A)=31-95%; (B)=0-30%)
21,"COc1ccccc1-c1ccc(CNC23CC4CC(CC(C4)C2)C3)nc1 [Example 69b, Adamantan-1-yl-[5-(2-methoxy-phenyl)-pyridin-2-ylmethyl]-amine]",A (key: (A)=31-95%; (B)=0-30%)
22,"Oc1cc(Cl)ccc1CNC12CC3CC(CC(C3)C1)C2 [Example 9b, 2-((-Adamantan-1-ylamino)methyl)-5-chlorophenol]",A (key: (A)=31-95%; (B)=0-30%)
23,"COc1ccc(Cc2nc(CNC34CC5CC(CC(C5)C3)C4)no2)cc1OC [Example 28b, N-((5-(3,4-dimethoxybenzyl)-1,2,4-oxadiazol-3-yl)methyl)adamantan-1-amine]",A (key: (A)=31-95%; (B)=0-30%)
